19 molecules from patent publication US20220220128A1, “HETEROCYCLIC COMPOUNDS AS KINASE INHIBITORS, COMPOSITIONS COMPRISING THE HETEROCYCLIC COMPOUND, AND METHODS OF USE THEREOF” (JS Innopharm (Shanghai) Ltd, priority 2019, published 2022) can be followed below.

For assay [1], the target named is T1, human RET kinase (Homo sapiens, UniProt P07949).
T1 construct: purchased Carna 08-159
Description: RET Kinase Assay (LanthaScreen TR-FRET enzymatic assay). Format: biochemical. The note with it: 7 nM RET, 23 μM ATP. A digest of the protocol: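 TR-FRET enzymatic read-out using 23 μM ATP, 3 μM FAM-P2 substrate and 7 nM human RET, after 15-min compound pretreatment at room temperature and a 1 h reaction at 28° C in HEPES pH 7.5 buffer. Percent of DMSO control fitted to nonlinear sigmoid curves for IC50.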
For orientation: Time-resolved FRET reads energy transfer from a long-lived donor to a nearby acceptor.

Assay [2] has as its target T2, BAF3-KIF5B-RET cells (Homo sapiens, UniProt P07949).
T2 construct: fused on or other part: P33176 (Kinesin-1 heavy chain)
Description: BAF3-KIF5B-RET Cell proliferation assay (CellTiter-Glo, 72 hours). Format: cell-based. The note with it: growth inhibition, read-out: BA/F3-KIF5B-RET Cellular activity. As to the method: Compounds disclosed herein were tested for the inhibition of RET by a cancer cell proliferation assay commonly known as CellTiter-Glo assay. In this assay, a complete media was prepared by adding 10% fetal bovine serum to RPMI-1640 medium (Life technology) for BAF3-FIF5B-RET cells. BAF3-KIF5B-RET cells were added to each of 88 wells of a 96 well plate at a seeding density of 2,000 cells/well/95 μL. The cells were allowed to attach to the plate by incubating at 37° C. for 24 hours. The compound was dissolved in DMSO (SIGMA). A solution of test compound was prepared in complete media by serial dilution to obtain the following concentrations: 20 μM, 6.67 μM, 2.22 μM, 0.74 μM, 0.25 μM, 0.082 μM, 0.027 μM, 0.0091 μM and 0.0030 μM. The test compound solution (5 μL) was added to each of 80 cell-containing wells. The final concentrations of the compound were following: 1 μM, 0.33 μM, 0.11 μM, 0.037 μM, 0.012 μM, 0.0041 μM, 0.0014 μM, 0.00046 μM and 0.00015 μM. The final concentration of DMSO is 0.1%. To the 8 remaining cell-containing wells, only complete media (containing 0.1% DMSO) was added to form a control group in order to measure maximal proliferation. To the remaining 8 empty wells, complete media was added to for a vehicle control group in order to measure background. The plates were incubated at 37° C. for 72 hours. 50 μl of CellTiter-Glo® Reagent was added to each well. Mix contents for 2 minutes on an orbital shaker to induce cell lysis. Incubate at room temperature for 10 minutes to stabilize luminescent signal. Record luminescence on Paradigm. Cell viability (CV %) was calculated relative to vehicle (DMSO) treated control wells. The IC50 was calculated using GraphPad Prism.

T1 sequence (P07949 29-1114): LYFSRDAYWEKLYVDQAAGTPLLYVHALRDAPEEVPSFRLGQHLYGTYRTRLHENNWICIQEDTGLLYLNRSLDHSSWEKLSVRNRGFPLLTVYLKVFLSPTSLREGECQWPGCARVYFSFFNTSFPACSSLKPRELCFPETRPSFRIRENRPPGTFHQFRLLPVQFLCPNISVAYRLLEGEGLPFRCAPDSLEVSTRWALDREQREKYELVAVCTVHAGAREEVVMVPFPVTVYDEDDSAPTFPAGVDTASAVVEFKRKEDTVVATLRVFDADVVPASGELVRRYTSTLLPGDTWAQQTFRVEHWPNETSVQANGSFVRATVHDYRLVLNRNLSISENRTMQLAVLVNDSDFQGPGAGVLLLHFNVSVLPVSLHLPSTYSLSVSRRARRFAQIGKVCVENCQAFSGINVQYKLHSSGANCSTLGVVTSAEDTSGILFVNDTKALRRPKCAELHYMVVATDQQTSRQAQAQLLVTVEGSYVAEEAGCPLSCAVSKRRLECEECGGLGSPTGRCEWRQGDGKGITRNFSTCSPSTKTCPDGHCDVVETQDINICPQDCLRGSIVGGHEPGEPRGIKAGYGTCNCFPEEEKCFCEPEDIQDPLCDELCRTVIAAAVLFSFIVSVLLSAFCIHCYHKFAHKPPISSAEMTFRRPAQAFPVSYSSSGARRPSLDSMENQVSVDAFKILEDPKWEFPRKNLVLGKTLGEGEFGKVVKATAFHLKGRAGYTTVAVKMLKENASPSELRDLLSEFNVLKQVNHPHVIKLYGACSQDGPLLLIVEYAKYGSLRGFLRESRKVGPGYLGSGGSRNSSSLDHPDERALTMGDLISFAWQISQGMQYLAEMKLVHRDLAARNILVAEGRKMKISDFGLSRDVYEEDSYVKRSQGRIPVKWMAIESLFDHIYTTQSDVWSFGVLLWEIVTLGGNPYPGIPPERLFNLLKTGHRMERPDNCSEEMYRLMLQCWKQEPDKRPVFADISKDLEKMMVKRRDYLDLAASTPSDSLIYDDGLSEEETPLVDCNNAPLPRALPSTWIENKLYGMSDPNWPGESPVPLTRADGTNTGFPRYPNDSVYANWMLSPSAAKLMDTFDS
T2 sequence (P07949 whole entry, change not shown, the tested form may be a part): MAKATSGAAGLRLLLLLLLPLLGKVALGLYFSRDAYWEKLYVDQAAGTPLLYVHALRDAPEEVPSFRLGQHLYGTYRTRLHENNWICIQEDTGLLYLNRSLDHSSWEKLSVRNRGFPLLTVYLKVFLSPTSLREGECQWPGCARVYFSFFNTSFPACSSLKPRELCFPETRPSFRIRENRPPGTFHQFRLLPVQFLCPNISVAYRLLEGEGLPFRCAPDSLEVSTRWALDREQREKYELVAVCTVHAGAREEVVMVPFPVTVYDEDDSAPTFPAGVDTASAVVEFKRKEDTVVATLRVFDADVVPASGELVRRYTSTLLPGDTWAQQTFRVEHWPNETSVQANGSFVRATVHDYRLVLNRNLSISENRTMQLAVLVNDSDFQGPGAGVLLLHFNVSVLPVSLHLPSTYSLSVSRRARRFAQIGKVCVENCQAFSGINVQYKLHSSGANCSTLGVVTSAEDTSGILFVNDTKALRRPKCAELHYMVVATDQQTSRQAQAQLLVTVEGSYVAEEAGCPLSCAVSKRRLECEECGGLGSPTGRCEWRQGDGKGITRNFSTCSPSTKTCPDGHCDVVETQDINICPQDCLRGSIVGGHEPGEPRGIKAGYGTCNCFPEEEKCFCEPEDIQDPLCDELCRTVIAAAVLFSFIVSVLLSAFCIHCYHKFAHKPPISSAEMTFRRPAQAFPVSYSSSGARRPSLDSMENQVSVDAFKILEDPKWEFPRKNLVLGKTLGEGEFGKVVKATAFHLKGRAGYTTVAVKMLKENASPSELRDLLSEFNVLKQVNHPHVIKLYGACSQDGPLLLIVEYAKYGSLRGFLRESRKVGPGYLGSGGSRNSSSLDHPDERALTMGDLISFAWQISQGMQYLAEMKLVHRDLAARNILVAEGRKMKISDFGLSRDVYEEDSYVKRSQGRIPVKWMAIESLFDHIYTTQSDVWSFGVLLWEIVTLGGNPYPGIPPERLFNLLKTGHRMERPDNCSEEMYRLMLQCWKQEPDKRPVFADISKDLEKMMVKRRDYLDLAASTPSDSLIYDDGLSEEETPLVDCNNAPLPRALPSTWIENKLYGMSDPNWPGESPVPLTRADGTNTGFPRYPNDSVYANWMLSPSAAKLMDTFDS

For the molecule `COc1ccc(C(=O)N[C@]2(C)C[C@H]3CN(c4cnc(-c5cc(-c6cnn(C)c6)cn6ncc(C#N)c56)cn4)C[C@H]3C2)cn1` [Example 145, N-((3aR,5s,6aS)-2-(5-(3-cyano-6-(1-methyl-1H-pyrazol-4-yl)pyrazolo[1,5-a]pyridin-4-yl)pyrazin-2-yl)-5-methyloctahydrocyclopenta[c]pyrrol-5-yl)-6-methoxynicotinamide], the IC50 (usually the concentration needed to halve the response being measured) in assay [1] was ≤ 10 nM. The GI50 in assay [2] is ≤ 10 nM.
Consider `COc1cccc(C(=O)N[C@]2(C)C[C@H]3CN(c4cnc(-c5cc(-c6cnn(C)c6)cn6ncc(C#N)c56)cn4)C[C@H]3C2)n1` [Example 146, N-((3aR,5s,6aS)-2-(5-(3-cyano-6-(1-methyl-1H-pyrazol-4-yl)pyrazolo[1,5-a]pyridin-4-yl)pyrazin-2-yl)-5-methyloctahydrocyclopenta[c]pyrrol-5-yl)-6-methoxypicolinamide], for which the IC50 in assay [1] is ≤ 10 nM. Moreover, in assay [2], the GI50 was ≤ 10 nM.
Take `Cn1cc(-c2cc(-c3cnc(N4C[C@@H]5C[C@@](C)(NC(=O)c6ccnc(C(F)(F)F)c6)C[C@@H]5C4)cn3)c3c(C#N)cnn3c2)cn1` [Example 147, N-((3aR,5s,6aS)-2-(5-(3-cyano-6-(1-methyl-1H-pyrazol-4-yl)pyrazolo[1,5-a]pyridin-4-yl)pyrazin-2-yl)-5-methyloctahydrocyclopenta[c]pyrrol-5-yl)-2-(trifluoromethyl)isonicotinamide]: the IC50 in assay [1] was ≤ 10 nM. Also, in assay [2], the GI50 is 10 to 50 nM.
Consider `COc1cncc(C(=O)N[C@]2(C)C[C@H]3CN(c4cnc(-c5cc(-c6cnn(C)c6)cn6ncc(C#N)c56)cn4)C[C@H]3C2)c1` [Example 148, N-((3aR,5s,6aS)-2-(5-(3-cyano-6-(1-methyl-1H-pyrazol-4-yl)pyrazolo[1,5-a]pyridin-4-yl)pyrazin-2-yl)-5-methyloctahydrocyclopenta[c]pyrrol-5-yl)-5-methoxynicotinamide], for which the IC50 in assay [1] was ≤ 10 nM. For the same molecule, the GI50 in assay [2] was ≤ 10 nM.
With `COc1ccnc(C(=O)N[C@]2(C)C[C@H]3CN(c4cnc(-c5cc(-c6cnn(C)c6)cn6ncc(C#N)c56)cn4)C[C@H]3C2)c1` [Example 149, N-((3aR,5s,6aS)-2-(5-(3-cyano-6-(1-methyl-1H-pyrazol-4-yl)pyrazolo[1,5-a]pyridin-4-yl)pyrazin-2-yl)-5-methyloctahydrocyclopenta[c]pyrrol-5-yl)-4-methoxypicolinamide], in assay [1], the IC50 was ≤ 10 nM. Further, the GI50 in assay [2] was ≤ 10 nM.
Turning to `COc1cc(C(=O)N[C@]2(C)C[C@H]3CN(c4cnc(-c5cc(-c6cnn(C)c6)cn6ncc(C#N)c56)cn4)C[C@H]3C2)ccn1` [Example 150, N-((3aR,5s,6aS)-2-(5-(3-cyano-6-(1-methyl-1H-pyrazol-4-yl)pyrazolo[1,5-a]pyridin-4-yl)pyrazin-2-yl)-5-methyloctahydrocyclopenta[c]pyrrol-5-yl)-2-methoxyisonicotinamide], in assay [1], the IC50 is ≤ 10 nM. In assay [2], the GI50 was ≤ 10 nM.
As for `COc1cccnc1C(=O)N[C@]1(C)C[C@H]2CN(c3cnc(-c4cc(-c5cnn(C)c5)cn5ncc(C#N)c45)cn3)C[C@H]2C1` [Example 151, N-((3aR,5s,6aS)-2-(5-(3-cyano-6-(1-methyl-1H-pyrazol-4-yl)pyrazolo[1,5-a]pyridin-4-yl)pyrazin-2-yl)-5-methyloctahydrocyclopenta[c]pyrrol-5-yl)-3-methoxypicolinamide], the IC50 in assay [1] is ≤ 10 nM. For the same molecule, in assay [2], the GI50 was ≤ 10 nM.
On to `CC(C)(O)COc1cc(-c2cnc(N3C[C@@H]4[C@@H](CNC(=O)c5c(F)cccc5Cl)[C@@H]4C3)cn2)c2c(C#N)cnn2c1` [Example 154, 2-chloro-N-(((1R,5S,6s)-3-(5-(3-cyano-6-(2-hydroxy-2-methylpropoxy)pyrazolo[1,5-a]pyridin-4-yl)pyrazin-2-yl)-3-azabicyclo[3.1.0]hexan-6-yl)methyl)-6-fluorobenzamide], for which, in assay [1], the IC50 is ≤ 10 nM. Moreover, the GI50 in assay [2] lay in the range of 10 to 50 nM.
In the case of `COc1ccc(C(=O)NC[C@@H]2[C@H]3CN(c4cnc(-c5cc(OCC(C)(C)O)cn6ncc(C#N)c56)cn4)C[C@@H]23)cn1` [Example 155, N-(((1R,5S,6s)-3-(5-(3-cyano-6-(2-hydroxy-2-methylpropoxy)pyrazolo[1,5-a]pyridin-4-yl)pyrazin-2-yl)-3-azabicyclo[3.1.0]hexan-6-yl)methyl)-6-methoxynicotinamide], in assay [1], the IC50 is 50 to 100 nM. For the same molecule, the GI50 in assay [2] was > 100 nM.
With `COc1ccc(C(=O)NC[C@@H]2[C@H]3CN(c4cnc(-c5cc(-c6cnn(C)c6)cn6ncc(C#N)c56)cn4)C[C@@H]23)cn1` [Example 156, N-(((1R,5S,6s)-3-(5-(3-cyano-6-(1-methyl-1H-pyrazol-4-yl)pyrazolo[1,5-a]pyridin-4-yl)pyrazin-2-yl)-3-azabicyclo[3.1.0]hexan-6-yl)methyl)-6-methoxynicotinamide], the IC50 in assay [1] was ≤ 10 nM. Further, the GI50 in assay [2] was in the range of 10 to 50 nM.
The molecule `CC(C)(O)COc1cc(-c2cnc(N3C4CC5CC3CC(O)(C5)C4)cn2)c2c(C#N)cnn2c1` [Example 157, 4-(5-((1R,3S,5s,7s)-5-hydroxy-2-azaadamantan-2-yl)pyrazin-2-yl)-6-(2-hydroxy-2-methylpropoxy)pyrazolo[1,5-a]pyridine-3-carbonitrile] registered an IC50 in assay [1] of 10 to 50 nM. Also, in assay [2], the GI50 was > 100 nM.
The like results for `Cn1cc(-c2cc(-c3ccc(N4C[C@@H]5C[C@@](O)(Cc6ccccn6)C[C@@H]5C4)nc3)c3c(C#N)cnn3c2)cn1` [Example 158, 4-(6-((3aR,5r,6aS)-5-hydroxy-5-(pyridin-2-ylmethyl)hexahydrocyclopenta[c]pyrrol-2(1H)-yl)pyridin-3-yl)-6-(1-methyl-1H-pyrazol-4-yl)pyrazolo[1,5-a]pyridine-3-carbonitrile] were, in that order, ≤ 10 nM and 10 to 50 nM.
For `COc1ccc(C(=O)N[C@@H]2C[C@@H]3CN(c4ccc(-c5cc(OCC(C)(C)O)cn6ncc(C#N)c56)cn4)C[C@@H]3C2)cn1` [Example 159, N-((3aR,5r,6aS)-2-(5-(3-cyano-6-(2-hydroxy-2-methylpropoxy)pyrazolo[1,5-a]pyridin-4-yl)pyridin-2-yl)octahydrocyclopenta[c]pyrrol-5-yl)-6-methoxynicotinamide], in that order: 10 to 50 nM and 10 to 50 nM.
For `CC(C)(O)COc1cc(-c2cnc(N3C4CC5CC3CC(NC=O)(C5)C4)cn2)c2c(C#N)cnn2c1` [Example 160, N-((1R,3S,5s,7s)-2-(5-(3-cyano-6-(2-hydroxy-2-methylpropoxy)pyrazolo[1,5-a]pyridin-4-yl)pyrazin-2-yl)-2-azaadamantan-5-yl)formamide], in that order: 10 to 50 nM and > 100 nM.
Regarding `CCOc1cc(-c2cnc(N3C4CC5CC3CC(NC=O)(C5)C4)cn2)c2c(C#N)cnn2c1` [Example 161, N-((1R,3S,5s,7s)-2-(5-(3-cyano-6-ethoxypyrazolo[1,5-a]pyridin-4-yl)pyrazin-2-yl)-2-azaadamantan-5-yl)formamide], the IC50 in assay [1] was ≤ 10 nM. Besides, in assay [2], the GI50 was > 100 nM.
Take `CC(C)(O)COc1cc(-c2cnc(N3C4CC5CC3CC(N)(C5)C4)cn2)c2c(C#N)cnn2c1` [Example 162, 4-(5-((1R,3S,5s,7s)-5-amino-2-azaadamantan-2-yl)pyrazin-2-yl)-6-(2-hydroxy-2-methylpropoxy)pyrazolo[1,5-a]pyridine-3-carbonitrile]: the IC50 in assay [1] fell in the range of 10 to 50 nM. Also, in assay [2], the GI50 was > 100 nM.
For the molecule `CCOc1cc(-c2cnc(N3C4CC5CC3CC(N)(C5)C4)cn2)c2c(C#N)cnn2c1` [Example 163, 4-(5-((1R,3S,5s,7s)-5-amino-2-azaadamantan-2-yl)pyrazin-2-yl)-6-ethoxypyrazolo[1,5-a]pyridine-3-carbonitrile], in assay [1], the concentration for half-maximal inhibition (IC50) was in the range of 10 to 50 nM. Moreover, the GI50 in assay [2] was > 100 nM.
For `CC(C)(O)COc1cc(-c2cnc(N3C4CC5CC3CC(NC(=O)c3ncccc3Cl)(C5)C4)cn2)c2c(C#N)cnn2c1` [Example 164, 3-chloro-N-((1R,3S,5s,7s)-2-(5-(3-cyano-6-(2-hydroxy-2-methylpropoxy)pyrazolo[1,5-a]pyridin-4-yl)pyrazin-2-yl)-2-azaadamantan-5-yl)picolinamide], in that order: ≤ 10 nM and ≤ 10 nM.
The like results for `COc1ccc(C(=O)NC23CC4CC(C2)N(c2cnc(-c5cc(-c6cnn(C)c6)cn6ncc(C#N)c56)cn2)C(C4)C3)cn1` [Example 165, N-((1R,3S,5s,7s)-2-(5-(3-cyano-6-(1-methyl-1H-pyrazol-4-yl)pyrazolo[1,5-a]pyridin-4-yl)pyrazin-2-yl)-2-azaadamantan-5-yl)-6-methoxynicotinamide] were, in that order, ≤ 10 nM and ≤ 10 nM.
